Measured values as given in patent US7928060B2, “Amylin family polypeptide-6 (AFP-6) analogs and methods of making and using them” (Amylin Pharmaceuticals, Inc., priority 2004, dated 2011).
Where two headings read alike, the source gives them in different places. Bridge positions count the residues as written; N and C are the ends. Ends that are not written are not given here. Peptide text beside a SMILES is read from it.

Key:
calcitonin receptor [1] = assay: cAMP production in CHO cells (AlphaScreen); format: cell-based; details: CHO, 30,000 cells/well
amylin receptors = molecular target: T1, amylin receptors (Rattus norvegicus, UniProt P32214); assay: amylin radioligand binding assay (125I-rat amylin, nucleus accumbens membranes); details: Table 6; read-out: Amylin receptor binding
T1 construct: This basal forebrain tissue, containing the nucleus accumbens and surrounding regions, was weighed and homogenized; from tissue; host or cells: rat basal forebrain (nucleus accumbens) membranes, male Sprague-Dawley rats
T1 sequence (P32214 25-516): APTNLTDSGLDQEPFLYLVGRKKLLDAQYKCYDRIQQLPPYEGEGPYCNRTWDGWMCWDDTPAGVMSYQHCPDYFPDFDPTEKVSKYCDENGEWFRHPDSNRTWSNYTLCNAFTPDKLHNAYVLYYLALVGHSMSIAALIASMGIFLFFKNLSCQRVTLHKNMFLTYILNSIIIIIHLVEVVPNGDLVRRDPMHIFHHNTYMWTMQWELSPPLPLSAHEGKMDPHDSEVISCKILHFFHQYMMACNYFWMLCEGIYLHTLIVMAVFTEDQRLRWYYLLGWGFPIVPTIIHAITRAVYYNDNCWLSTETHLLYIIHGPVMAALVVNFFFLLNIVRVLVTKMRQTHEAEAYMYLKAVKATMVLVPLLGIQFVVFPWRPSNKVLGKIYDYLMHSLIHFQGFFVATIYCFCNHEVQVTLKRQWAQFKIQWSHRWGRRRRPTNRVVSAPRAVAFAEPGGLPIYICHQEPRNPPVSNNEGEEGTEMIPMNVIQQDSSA
Protocol: Unlabeled peptides were obtained from BACHEM Inc. (Torrance, Calif.).
Male Sprague-Dawley® rats (200-250) grams were sacrificed by decapitation. Brains were removed and place in cold phosphate-buffered saline (PBS). From the ventral surface, cuts were made rostral to the hypothalamus, bounded laterally by the olfactory tracts and extending at a 45° angle medially from these tracts. […] Membranes were washed three times in fresh buffer by centrifugation for 15 minutes at 48,000×g. The final membrane pellet was resuspended in 20 mM HEPES buffer containing 0.2 mM phenylmethylsulfonyl fluoride (PMSF).
Solutions were incubated for 60 minutes at 2 C. […] Filters were washed immediately before filtration with 5 ml cold PBS, and immediately after filtration with 15 ml cold PBS. […] Competition curves were generated by measuring binding in the presence of 10^−12 to 10^−6 M unlabeled test compound and were analyzed by nonlinear regression using a 4-parameter logistic equation (INPLOT program; […] Software, San Diego, Calif.).

calcitonin receptor [2] = molecular target: T2, calcitonin receptor (Rattus norvegicus, UniProt P32214); assay: calcitonin receptor binding assay (rCalcitonin RBA); details: Table 6; read-out: CT receptor binding
T2 sequence (P32214 25-516): T1 sequence (P32214 25-516)

adrenomedullin receptor = adrenomedullin receptor (Homo sapiens, UniProt O60895+Q16602); assay: adrenomedullin (ADM) receptor binding assay; details: Table 6
Chain of adrenomedullin receptor (Q16602 23-461): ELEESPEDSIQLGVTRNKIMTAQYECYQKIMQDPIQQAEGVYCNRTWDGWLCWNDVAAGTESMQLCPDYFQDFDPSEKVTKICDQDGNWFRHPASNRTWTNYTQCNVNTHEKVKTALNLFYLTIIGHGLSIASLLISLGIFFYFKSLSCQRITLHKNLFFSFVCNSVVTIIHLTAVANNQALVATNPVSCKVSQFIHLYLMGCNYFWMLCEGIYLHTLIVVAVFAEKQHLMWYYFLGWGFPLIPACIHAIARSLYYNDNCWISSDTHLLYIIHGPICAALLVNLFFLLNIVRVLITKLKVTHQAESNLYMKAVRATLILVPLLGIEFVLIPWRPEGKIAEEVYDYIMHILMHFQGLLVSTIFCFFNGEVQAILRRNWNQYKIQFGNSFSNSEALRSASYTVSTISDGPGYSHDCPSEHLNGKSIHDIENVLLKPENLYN
Chain of adrenomedullin receptor (O60895 43-175): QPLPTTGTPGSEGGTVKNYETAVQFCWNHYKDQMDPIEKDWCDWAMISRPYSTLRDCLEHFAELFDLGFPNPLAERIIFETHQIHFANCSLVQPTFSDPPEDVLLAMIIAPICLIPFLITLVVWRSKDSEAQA

## CC[C@H](C)[C@H](NC(=O)[C@H](C)NC(=O)[C@@H](NC(=O)[C@H](CCC(N)=O)NC(=O)[C@@H]1CCCN1C(=O)[C@H](Cc1ccccc1)NC(=O)[C@@H](NC(=O)[C@H](Cc1c[nH]cn1)NC(=O)[C@H](Cc1ccccc1)NC(=O)[C@H](CCCCN)NC(=O)[C@H](CC(N)=O)NC(=O)[C@H](Cc1ccccc1)NC(=O)[C@H](CC(=O)O)NC(=O)[C@H](CCC(N)=O)NC(=O)[C@@H](NC(=O)[C@H](Cc1ccc(O)cc1)NC(=O)[C@@H](NC(=O)CNC(=O)[C@H](CC(C)C)NC(=O)[C@H](CCSC)NC(=O)[C@@H]1CSSC[C@H](N)C(=O)NCC(=O)N[C@@H](CC(N)=O)C(=O)N[C@@H](CC(C)C)C(=O)N[C@@H](CO)C(=O)N[C@@H]([C@@H](C)O)C(=O)N1)[C@@H](C)O)[C@@H](C)O)[C@@H](C)O)[C@@H](C)O)C(=O)NCC(=O)N[C@H](C(=O)NCC(=O)N[C@@H](C)C(=O)N1CCC[C@H]1C(N)=O)C(C)C [SEQ ID NO: 6]
Calcitonin receptor [1]; average of three experiments, read-out: Average EC50
  EC50: 0.097 nM
Calcitonin receptor [1]; read-out: Experiment 1 EC50
  EC50: 0.077 nM
Calcitonin receptor [1]; read-out: Experiment 2 EC50
  EC50: 0.14 nM
Calcitonin receptor [1]; read-out: Experiment 3 EC50
  EC50: 0.075 nM

## CSCC[C@H](NC(=O)[C@H](CC(C)C)NC(=O)[C@H](CCC(N)=O)NC(=O)[C@H](Cc1c[nH]c2ccccc12)NC(=O)[C@H](CC(C)C)NC(=O)[C@H](CCCNC(=N)N)NC(=O)[C@H](Cc1c[nH]cn1)NC(=O)[C@H](CO)NC(=O)[C@H](CC(C)C)NC(=O)[C@H](CC(N)=O)NC(=O)[C@H](CCC(N)=O)NC(=O)[C@@H](NC(=O)[C@H](CCC(N)=O)NC(=O)[C@@H]1CSSC[C@H](NC(=O)CNC(=O)[C@@H](N)C(C)C)C(=O)N[C@@H](C(C)C)C(=O)N[C@@H](CC(C)C)C(=O)NCC(=O)N[C@@H]([C@@H](C)O)C(=O)N1)C(C)C)C(=O)NCC(=O)N1CCC[C@H]1C(=O)N[C@@H](C)C(=O)NCC(=O)N[C@@H](CCCNC(=N)N)C(=O)N[C@@H](CCC(N)=O)C(=O)N[C@@H](CC(=O)O)C(=O)N[C@@H](CO)C(=O)N[C@@H](C)C(=O)N1CCC[C@H]1C(=O)N[C@H](C(=O)N[C@@H](CCC(=O)O)C(=O)N1CCC[C@H]1C(=O)N[C@@H](CO)C(=O)N[C@@H](CO)C(=O)N1CCC[C@H]1C(=O)N[C@@H](Cc1c[nH]cn1)C(=O)N[C@@H](CO)C(=O)N[C@@H](Cc1ccc(O)cc1)C(N)=O)C(C)C [compound 35] (H-VGCVLGTCQVQNLSHRLWQLMGPAGRQDSAPVEPSSPHSY-NH2; disulfide 3-8 (inferred))
Amylin receptors
  IC50: 17 nM
Calcitonin receptor [2]
  IC50: 153 nM
Adrenomedullin receptor
  IC50: 37 nM

## CC(C)C[C@H](NC(=O)[C@H](CCC(N)=O)NC(=O)[C@H](Cc1c[nH]c2ccccc12)NC(=O)[C@H](CC(C)C)NC(=O)[C@H](CCCNC(=N)N)NC(=O)[C@H](Cc1c[nH]cn1)NC(=O)[C@H](CO)NC(=O)[C@H](CC(C)C)NC(=O)[C@H](CC(N)=O)NC(=O)[C@H](CCC(N)=O)NC(=O)[C@@H](NC(=O)[C@H](CCC(N)=O)NC(=O)[C@@H]1CSSC[C@H](NC(=O)CN)C(=O)N[C@@H](CC(N)=O)C(=O)N[C@@H]([C@@H](C)O)C(=O)N[C@@H](C)C(=O)N[C@@H]([C@@H](C)O)C(=O)N1)C(C)C)C(=O)N[C@@H](CCCNC(=N)N)C(=O)N[C@@H](CCC(N)=O)C(=O)N[C@@H](CC(=O)O)C(=O)N[C@@H](CO)C(=O)N[C@@H](C)C(=O)N1CCC[C@H]1C(=O)N[C@H](C(=O)N[C@@H](CCC(=O)O)C(=O)N1CCC[C@H]1C(=O)N[C@@H](CO)C(=O)N[C@@H](CO)C(=O)N1CCC[C@H]1C(=O)N[C@@H](Cc1c[nH]cn1)C(=O)N[C@@H](CO)C(=O)N[C@@H](Cc1ccc(O)cc1)C(N)=O)C(C)C [compound 37] (H-GCNTATCQVQNLSHRLWQLRQDSAPVEPSSPHSY-NH2; disulfide 2-7 (inferred); N-terminus assumed)
Amylin receptors
  IC50: 39 nM
Calcitonin receptor [2]
  IC50: 121 nM
Adrenomedullin receptor
  IC50: ≥ 1000 nM

## TQAQLLRVGCVLGTCQVQNLSHRLWQLMGPAGRQESAPVEPSSPHSY-NH2 (disulfide 10-15 (inferred)) [compound 32]
Amylin receptors
  IC50: 16 nM
Adrenomedullin receptor
  IC50: 7.1 nM

## CSCC[C@H](NC(=O)[C@H](CC(C)C)NC(=O)[C@H](CCC(N)=O)NC(=O)[C@H](Cc1c[nH]c2ccccc12)NC(=O)[C@H](CC(C)C)NC(=O)[C@H](CCCNC(=N)N)NC(=O)[C@H](Cc1c[nH]cn1)NC(=O)[C@H](CO)NC(=O)[C@H](CC(C)C)NC(=O)[C@H](CC(N)=O)NC(=O)[C@H](CCC(N)=O)NC(=O)[C@@H](NC(=O)[C@H](CCC(N)=O)NC(=O)[C@@H]1CSSC[C@H](NC(=O)CN)C(=O)N[C@@H](C(C)C)C(=O)N[C@@H](CC(C)C)C(=O)NCC(=O)N[C@@H]([C@@H](C)O)C(=O)N1)C(C)C)C(=O)NCC(=O)N1CCC[C@H]1C(=O)N[C@@H](C)C(=O)NCC(=O)N[C@@H](CCCNC(=N)N)C(=O)N[C@@H](CCC(N)=O)C(=O)N[C@@H](CC(=O)O)C(=O)N[C@@H](CO)C(=O)N[C@@H](C)C(=O)N1CCC[C@H]1C(=O)N[C@H](C(=O)N[C@@H](CC(=O)O)C(=O)N1CCC[C@H]1C(=O)N[C@@H](CO)C(=O)N[C@@H](CO)C(=O)N1CCC[C@H]1C(=O)N[C@@H](Cc1c[nH]cn1)C(=O)N[C@@H](CO)C(=O)N[C@@H](Cc1ccc(O)cc1)C(N)=O)C(C)C [compound 11] (H-GCVLGTCQVQNLSHRLWQLMGPAGRQDSAPVDPSSPHSY-NH2; disulfide 2-7 (inferred); N-terminus assumed)
Calcitonin receptor [2]
  IC50: 27 nM
Adrenomedullin receptor
  IC50: 11 nM

## CSCC[C@H](NC(=O)[C@H](CC(C)C)NC(=O)[C@H](CCC(N)=O)NC(=O)[C@H](Cc1c[nH]c2ccccc12)NC(=O)[C@H](CC(C)C)NC(=O)[C@H](CCCNC(=N)N)NC(=O)[C@H](Cc1c[nH]cn1)NC(=O)[C@H](CO)NC(=O)[C@H](CC(C)C)NC(=O)[C@H](CC(N)=O)NC(=O)[C@H](CCC(N)=O)NC(=O)[C@@H](NC(=O)[C@H](CCC(N)=O)NC(=O)[C@@H]1CSSC[C@H](NC(=O)CNC(=O)[C@@H](NC(=O)[C@@H](N)CCCNC(=N)N)C(C)C)C(=O)N[C@@H](C(C)C)C(=O)N[C@@H](CC(C)C)C(=O)NCC(=O)N[C@@H]([C@@H](C)O)C(=O)N1)C(C)C)C(=O)NCC(=O)N1CCC[C@H]1C(=O)N[C@@H](C)C(=O)NCC(=O)N[C@@H](CCCNC(=N)N)C(=O)N[C@@H](CCC(N)=O)C(=O)N[C@@H](CC(=O)O)C(=O)N[C@@H](CO)C(=O)N[C@@H](C)C(=O)N1CCC[C@H]1C(=O)N[C@H](C(=O)N[C@@H](CC(=O)O)C(=O)N1CCC[C@H]1C(=O)N[C@@H](CO)C(=O)N[C@@H](CO)C(=O)N1CCC[C@H]1C(=O)N[C@@H](Cc1c[nH]cn1)C(=O)N[C@@H](CO)C(=O)N[C@@H](Cc1ccc(O)cc1)C(N)=O)C(C)C [compound 10]
Calcitonin receptor [2]
  IC50: 55 nM
Adrenomedullin receptor
  IC50: 7.1 nM

## H-TQAQLLRVGMVLGTMQVQNLSHRLWQLMGPAGRQDSAPVDPSSPHSY-NH2 [compound 25]
Calcitonin receptor [2]
  IC50: > 1000 nM
Adrenomedullin receptor
  IC50: 120 nM

## H-TQAQLLRVGCSNLSTCQVQNLSHRLWQLMGPAGRQDSAPVDPSSPHSY-NH2 (disulfide 10-16 (inferred)) [compound 20]
Calcitonin receptor [2]
  IC50: 16 nM
Adrenomedullin receptor
  IC50: 36 nM

## CSCC[C@H](NC(=O)[C@H](CC(C)C)NC(=O)[C@H](CCC(N)=O)NC(=O)[C@H](Cc1c[nH]c2ccccc12)NC(=O)[C@H](CC(C)C)NC(=O)[C@H](CCCNC(=N)N)NC(=O)[C@H](Cc1c[nH]cn1)NC(=O)[C@H](CO)NC(=O)[C@H](CC(C)C)NC(=O)[C@H](CC(N)=O)NC(=O)[C@H](CCC(N)=O)NC(=O)[C@@H](NC(=O)[C@H](CCC(N)=O)NC(=O)[C@@H]1CSSC[C@H](N)C(=O)N[C@@H](C(C)C)C(=O)N[C@@H](CC(C)C)C(=O)NCC(=O)N[C@@H]([C@@H](C)O)C(=O)N1)C(C)C)C(=O)NCC(=O)N1CCC[C@H]1C(=O)N[C@@H](C)C(=O)NCC(=O)N[C@@H](CCCNC(=N)N)C(=O)N[C@@H](CCC(N)=O)C(=O)N[C@@H](CC(=O)O)C(=O)N[C@@H](CO)C(=O)N[C@@H](C)C(=O)N1CCC[C@H]1C(=O)N[C@H](C(=O)N[C@@H](CC(=O)O)C(=O)N1CCC[C@H]1C(=O)N[C@@H](CO)C(=O)N[C@@H](CO)C(=O)N1CCC[C@H]1C(=O)N[C@@H](Cc1c[nH]cn1)C(=O)N[C@@H](CO)C(=O)N[C@@H](Cc1ccc(O)cc1)C(N)=O)C(C)C [compound 12] (H-CVLGTCQVQNLSHRLWQLMGPAGRQDSAPVDPSSPHSY-NH2; disulfide 1-6 (inferred); N-terminus assumed)
Calcitonin receptor [2]
  IC50: 198 nM
Adrenomedullin receptor
  IC50: 18 nM
